System: 855422-203-R-J1-PDC complex spheroid viability
Test: Anticancer human tumor 855422-203-R-J1-PDC patient-derived bladder carcinoma cell line growth inhibition [POLQ]
Settings: for IC50: curve of first compound; for viability, T/C: stronger effect = lower value
Protocol: Multicellular complex tumor spheroid response to Polymerase (POL) inhibitors (novobiocin, ART-558, RP6685) in combination with a variety of drugs and investigational agents in selected tumor cell lines
The POL inhibitors (novobiocin, ART-558, and RP6685) were evaluated both individually and in combination with standard of care and investigational anticancer small molecules within a complex spheroid model of solid tumors. . Complex spheroids include a stromal component modeled by human endothelial cells (HUVEC) and fibroblasts modeled by human mesenchymal stem cells (MSCs). The concentration ranges selected for each drug and investigational agent were based upon clinically achievable concentrations if the clinical Cmax of the agent was known.
Compounds. The drugs and investigational agents: novobiocin (NSC847541), ART-558 (NSC835418), RP-6685 (NSC848927), peposertib (NSC802822), ceralasertib (NSC780249), elimusertib (NSC800525), camonsertib (NSC841442), AZD-1390 (NSC803789), olaparib (NSC753686), talazoparib (NSC767125), rucaparib (NSC756644), sotorasib (NSC818433), MRTX-1133 (NSC836407), SN-38 (NSC673596), topotecan (NSC609699), epotoside (NSC141540), doxorubicin (NSC123127), gemcitabine (NSC613327), 5-fluorouracil (NSC19893), paclitaxel (NSC125973), vemurafenib (NSC761431), MSA-2 (NSC828583), SN-011 (NSC837082), adavosertib (NSC754352), prexasertib (NSC758257), carboplatin (NSC241240) and oxaliplatin (NSC266046), were obtained from the National Cancer Institute (NCI) Developmental Therapeutics Program Chemical Repository (21). The FDA-approved anticancer drug set is available from the Developmental Therapeutics Program at https://dtp.cancer.gov/organization/dscb/obtaining/. […] The stock solutions were prepared in dimethyl sulfoxide (DMSO, Sigma-Aldrich, St. Louis, MO, cat. D2650), except for the platinum compounds which were prepared in saline (Quality Biological, Gaithersburg, MD, cat. 114-055-101), at 800-fold the tested concentration and stored at -70 degrees C prior to their use. All drugs and investigational agents were tested over a range starting from a high concentration at or near the clinical Cmax and decreasing in half-log increments. If the clinical Cmax for an agent had not been determined, the highest concentration tested was 10 microM, except for SN-38, which was tested at a high concentration of 1 microM.
Cell Culture. All cells were maintained in an incubator at 37 degrees C and 5% CO2 with 95% humidity. The PDC lines were cultured according to standard operating procedures established by the NCI PDMR (https://pdmr.cancer.gov). Table 3 of the manuscript, lists the cell lines along with the number of the three cell types plated to form the mct-spheroids and media for tumor cell growth. After thawing, all PDC lines, except 997537-175-T-J1-PDC and 415267-285-R-J2-PDC, were cultured in Matrigel-coated flasks prepared with a working solution of 1X Ham's F-12 nutrient mix, without supplementation (Thermo Fisher Scientific, cat. 11765054), 100 U/mL penicillin-streptomycin (Thermo Fisher Scientific, cat. 15140122), and 2.5% Matrigel (Corning Inc., Corning, NY, cat. 354248) for the first three passages. The two PDC lines 997537-175-T-J1-PDC and 415267-285-R-J2-PDC were cultured on uncoated flasks. The 857933-349-R-J2-PDC line was cultured in 6C/Colon 1B media containing advanced DMEM/F-12 (Thermo Fisher Scientific, cat. 12634028), 10 mM HEPES (Thermo Fisher Scientific, cat. 15630080), 1X GlutaMAX supplement (Thermo Fisher Scientific, cat. 35050061), 0.1 mg/mL primocin (InvivoGen, San Diego, CA, cat. ant-pm-2), 10% defined fetal bovine serum, heat inactivated (HyClone Laboratories Inc., Logan, UT, cat. SH30070.03HI), 50% L-WRN conditioned media (ATCC, cat. CRL-3276), 1.25 mM N-Acetyl-L-cysteine (Sigma-Aldrich, cat. A9165), 10 mM nicotinamide (Sigma-Aldrich, cat. N0636), 1X B-27 supplement (Thermo Fisher Scientific, cat. 17504044), 1X N-2 supplement (Thermo Fisher Scientific, cat. […]

[1] = second compound 0.0316 µM, first compound 0.0316 µM
[2] = second compound 0.0316 µM, first compound 0.1 µM
[3] = second compound 0.0316 µM, first compound 0.316 µM
[4] = second compound 0.0316 µM, first compound 1 µM
[5] = second compound 0.0316 µM, first compound 3.16 µM
[6] = second compound 0.0316 µM, first compound 10 µM
[7] = second compound 0.1 µM, first compound 0.0316 µM
[8] = second compound 0.1 µM, first compound 0.1 µM
[9] = second compound 0.1 µM, first compound 0.316 µM
[10] = second compound 0.1 µM, first compound 1 µM
[11] = second compound 0.1 µM, first compound 3.16 µM
[12] = second compound 0.1 µM, first compound 10 µM
[13] = second compound 0.316 µM, first compound 0.0316 µM
[14] = second compound 0.316 µM, first compound 0.1 µM
[15] = second compound 0.316 µM, first compound 0.316 µM
[16] = second compound 0.316 µM, first compound 1 µM
[17] = second compound 0.316 µM, first compound 3.16 µM
[18] = second compound 0.316 µM, first compound 10 µM
[19] = second compound 1 µM, first compound 0.0316 µM
[20] = second compound 1 µM, first compound 0.1 µM
[21] = second compound 1 µM, first compound 0.316 µM
[22] = second compound 1 µM, first compound 1 µM
[23] = second compound 1 µM, first compound 3.16 µM
[24] = second compound 1 µM, first compound 10 µM
[25] = second compound 3.16 µM, first compound 0.0316 µM
[26] = second compound 3.16 µM, first compound 0.1 µM
[27] = second compound 3.16 µM, first compound 0.316 µM
[28] = second compound 3.16 µM, first compound 1 µM
[29] = second compound 3.16 µM, first compound 3.16 µM
[30] = second compound 3.16 µM, first compound 10 µM
[31] = second compound 10 µM, first compound 0.0316 µM
[32] = second compound 10 µM, first compound 0.1 µM
[33] = second compound 10 µM, first compound 0.316 µM
[34] = second compound 10 µM, first compound 1 µM
[35] = second compound 10 µM, first compound 3.16 µM
[36] = second compound 10 µM, first compound 10 µM
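Also: spheroids exposed to compounds for seven days before readout.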

`Nc1ccn(C2OC(CO)C(O)C2(F)F)c(=O)n1` (centres undefined) + COC1C(OC(N)=O)C(O)C(Oc2ccc3c(O)c(NC(=O)c4ccc(O)c(CC=C(C)C)c4)c(=O)oc3c2C)OC1(C)C gave an IC50 (second compound 0.0316 µM) of 43.7 nM, an IC50 (second compound 0.1 µM) of 48.2 nM and an IC50 (second compound 0.316 µM) of 65.4 nM. For the same compound, the IC50 (second compound 1 µM) was 58.8 nM, the IC50 (second compound 3.16 µM) was 68.1 nM and the IC50 (second compound 10 µM) was 65.8 nM. The viability, T/C [1] was 57.1%, the viability, T/C [2] was 31.7% and the viability, T/C [3] was 11.5%. It also gave a viability, T/C [4] of 9.46%, a viability, T/C [5] of 7.57% and a viability, T/C [6] of 6.26%. It also gave a viability, T/C [7] of 60.2%, a viability, T/C [8] of 32.2% and a viability, T/C [9] of 10.7%. It also gave a viability, T/C [10] of 8.44%, a viability, T/C [11] of 7.41% and a viability, T/C [12] of 6.76%. For the same compound, the viability, T/C [13] was 78.4%, the viability, T/C [14] was 33.5% and the viability, T/C [15] was 11.3%. It also gave a viability, T/C [16] of 8.38%, a viability, T/C [17] of 8.35% and a viability, T/C [18] of 5.06%. It also gave a viability, T/C [19] of 72.4%, a viability, T/C [20] of 31% and a viability, T/C [21] of 12.2%. The viability, T/C [22] was 9.87%, the viability, T/C [23] was 6.93% and the viability, T/C [24] was 6.4%. The viability, T/C [25] was 75.4%, the viability, T/C [26] was 37.3% and the viability, T/C [27] was 9.1%. For the same compound, the viability, T/C [28] was 9.44%, the viability, T/C [29] was 10.2% and the viability, T/C [30] was 6.39%. It also gave a viability, T/C [31] of 72.8%, a viability, T/C [32] of 37% and a viability, T/C [33] of 11.5%. The viability, T/C [34] was 11.4%, the viability, T/C [35] was 7.42% and the viability, T/C [36] was 5.66%.

`O=C(c1cc(Cc2n[nH]c(=O)c3ccccc23)ccc1F)N1CCN(C(=O)C2CC2)CC1` + COC1C(OC(N)=O)C(O)C(Oc2ccc3c(O)c(NC(=O)c4ccc(O)c(CC=C(C)C)c4)c(=O)oc3c2C)OC1(C)C showed an IC50 (second compound 0.0316 µM) of over 10000 nM, an IC50 (second compound 0.1 µM) of over 10000 nM and an IC50 (second compound 0.316 µM) of over 10000 nM. The IC50 (second compound 1 µM) was over 10000 nM, the IC50 (second compound 3.16 µM) was over 10000 nM and the IC50 (second compound 10 µM) was over 10000 nM. For the same compound, the viability, T/C [1] was 107%, the viability, T/C [2] was 107% and the viability, T/C [3] was 122%. It also gave a viability, T/C [4] of 90.8%, a viability, T/C [5] of 95.6% and a viability, T/C [6] of 78.8%. The viability, T/C [7] was 93.3%, the viability, T/C [8] was 111% and the viability, T/C [9] was 109%. The viability, T/C [10] was 104%, the viability, T/C [11] was 93.8% and the viability, T/C [12] was 83.7%. It also gave a viability, T/C [13] of 95.9%, a viability, T/C [14] of 105% and a viability, T/C [15] of 102%. The viability, T/C [16] was 114%, the viability, T/C [17] was 101% and the viability, T/C [18] was 67.2%. It also gave a viability, T/C [19] of 108%, a viability, T/C [20] of 101% and a viability, T/C [21] of 95.5%. For the same compound, the viability, T/C [22] was 118%, the viability, T/C [23] was 95.8% and the viability, T/C [24] was 66.9%. The viability, T/C [25] was 111%, the viability, T/C [26] was 90.8% and the viability, T/C [27] was 106%. For the same compound, the viability, T/C [28] was 105%, the viability, T/C [29] was 91.2% and the viability, T/C [30] was 68.1%. For the same compound, the viability, T/C [31] was 104%, the viability, T/C [32] was 111% and the viability, T/C [33] was 106%. It also gave a viability, T/C [34] of 96.7%, a viability, T/C [35] of 103% and a viability, T/C [36] of 60.2%.
